Key:
Format in all cases: in vivo
Design in all cases: scale not given here
cotton (Go) = assay: Test Example 4: crop plant selectivity by upland field soil treatment (cotton), phytotoxicity; conditions: evaluated 21st day after application
Method in brief: (§1)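 Weeds and cotton, sown in sand and topped with soil, received a soil-applied treatment. Evaluation after three weeks in a greenhouse followed a standard rating scale.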

slender amaranth (Am) [1] = assay: Test Example 11: crop plant selectivity by upland field foliage treatment (corn), herbicidal effects; conditions: upland field foliage treatment (corn test), dose 1.6 g ai/10a, 14th day after treatment
Method in brief: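 Corn and the weed species were sown together in sand-filled pots and grown in a greenhouse for 2 weeks before foliar treatment. Herbicidal effect was scored on day 14 after treatment against a graded standard scale, with corn phytotoxicity scored alongside.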

wheat (Tr) = assay: Test Example 5: crop plant selectivity by upland field soil treatment (wheat), phytotoxicity; conditions: 21st day after application
Method in brief: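 Pre-emergence soil treatment, sand-filled pots, seeds covered with soil; greenhouse culture; visual scoring of weed control and wheat injury at day 21 post-application.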

pale smartweed (Po) = assay: Test Example 4: crop plant selectivity by upland field soil treatment (cotton), herbicidal effects; conditions: evaluated 21st day after application
Method in brief: as §1

China jute (Ab) = assay: as above; conditions: evaluated 21st day after application
Method in brief: as §1

green foxtail (Se) [2] = assay: as above; conditions: evaluated 21st day after application
Method in brief: as §1

[3] = system: common lambsquarters (Ch); assay: as above; conditions: evaluated 21st day after application
Method in brief: as §1

slender amaranth (Am) [4] = assay: as above; conditions: evaluated 21st day after application
Method in brief: as §1

green foxtail (Se) [5] = assay: Test Example 7: crop plant selectivity by upland field soil treatment (corn), herbicidal effects; conditions: 21st day after application
Method in brief: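 Sand-filled pot; corn plus weeds sown, soil-covered. Post-application greenhouse culture. Herbicidal effect/phytotoxicity rated day 21 per standard scale.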

SMILES | Phytotoxicity Go (cotton (Go); dose 1.6 g ai/10 a) | Phytotoxicity Go (cotton (Go); dose 6.3 g ai/10 a) | Herbicidal effects Am (slender amaranth (Am) [1]) | Phytotoxicity Tr (wheat (Tr); dose 1.6 g ai/10a) | Phytotoxicity Tr (wheat (Tr); dose 6.3 g ai/10a) | Herbicidal effects Po (pale smartweed (Po); dose 1.6 g ai/10 a) | Herbicidal effects Po (pale smartweed (Po); dose 6.3 g ai/10 a) | Herbicidal effects Ab (China jute (Ab); dose 1.6 g ai/10 a) | Herbicidal effects Ab (China jute (Ab); dose 6.3 g ai/10 a) | Herbicidal effects Se (green foxtail (Se) [2]; dose 1.6 g ai/10 a) | Herbicidal effects Se (green foxtail (Se) [2]; dose 6.3 g ai/10 a) | Herbicidal effects Ch ([3]; dose 1.6 g ai/10 a) | Herbicidal effects Ch ([3]; dose 6.3 g ai/10 a) | Herbicidal effects Am (slender amaranth (Am) [4]; dose 1.6 g ai/10 a) | Herbicidal effects Am (slender amaranth (Am) [4]; dose 6.3 g ai/10 a) | Herbicidal effects Se (green foxtail (Se) [5]; dose 1.6 g ai/10a) | Herbicidal effects Se (green foxtail (Se) [5]; dose 6.3 g ai/10a)
C=CCOc1cc(-c2ccc(C(F)(F)F)n(C)c2=O)c(F)cc1Cl [1-16] | 0 | 0 | 5 | 1 | 1 | 5 | 5 | 5 | 5 | 5 | 5 | 5 | 5 | 5 | 5 | 5 | 5
C#CCOc1cc(-c2ccc(C(F)(F)F)n(C)c2=O)c(F)cc1Cl [1-18] | 1 | 1 | 5 | 2 |  | 5 | 5 | 5 | 5 | 5 | 5 | 5 | 5 | 5 | 5 | 5 | 5
Cn1c(C(F)(F)F)ccc(-c2cc(OCC#N)c(Cl)cc2F)c1=O [1-25] |  | 1 | 5 |  |  |  | 5 |  | 5 |  | 5 |  | 5 |  | 5 |  | 5
C#CCOc1cc(-c2ccc(C(F)(F)F)n(C)c2=O)c(Cl)cc1Cl [1-30] | 0 | 1 | 5 | 2 |  | 5 | 5 | 5 | 5 | 5 | 5 | 5 | 5 | 5 | 5 | 5 | 5
CCOC(=O)c1cc(-c2ccc(C(F)(F)F)n(C)c2=O)c(F)cc1Cl [1-65] | 0 | 0 | 5 | 0 | 1 | 5 | 5 | 5 | 5 | 5 | 5 | 5 | 5 | 5 | 5 | 5 | 5
Cn1c(C(F)(F)F)ccc(-c2cc(OCCCl)c(Cl)cc2F)c1=O [1-171] |  | 0 | 5 |  | 1 |  | 5 |  | 5 |  | 5 |  | 5 |  | 5 |  | 5
C#CCOc1cc(-c2ccc(C(F)(F)F)n(N)c2=O)c(F)cc1Cl [1-178] | 1 | 1 | 5 | 1 |  | 5 | 5 | 5 | 5 | 5 | 5 | 5 | 5 | 5 | 5 | 5 | 
COc1cc(-c2ccc(C(F)(F)F)n(N)c2=O)c(F)cc1Cl [1-179] |  | 0 | 5 |  | 1 |  | 5 |  | 5 |  | 5 |  | 5 |  | 5 |  | 5
C#CC(C)Oc1cc(Cl)cc(F)c1-c1ccc(C(F)(F)F)n(C)c1=O (stereo not shown) [1′-5] | 0 | 0 | 5 | 1 | 1 | 5 | 5 | 5 | 5 | 4 | 5 | 5 | 5 | 5 | 5 | 4 | 5
